Measured values reported in ChEMBL document CHEMBL1134045, “Inhibition of BCRP-mediated drug efflux by fumitremorgin-type indolyl diketopiperazines” (Bioorg Med Chem Lett, 2001).

These molecules were tested on T6400 (assay: Relative cellular accumulation of mitoxantrone determined with the compound at 2.5 uM and mitoxantrone at 10 uM on T6400 mouse cell line). Conditions: not given.
Format: functional
`CC(C)(C)OCC1NC(=O)[C@@H]2Cc3c([nH]c4ccccc34)C(c3ccccc3)N2C1=O` (stereo partly drawn) gave a Fluorescence of 106%.
`CCC1c2[nH]c3ccccc3c2C[C@H]2C(=O)NC(Cc3ccccc3)C(=O)N12` (stereo partly drawn) showed a Fluorescence of 63%.
Molecule `O=C1NC(Cc2c[nH]c3ccccc23)C(=O)N2C(c3ccccc3)c3[nH]c4ccccc4c3C[C@@H]12` (stereo partly drawn) has a Fluorescence of 125%.
Work on `O=C1NC(N2CCCC2)C(=O)N2C(c3ccccc3)c3[nH]c4ccccc4c3C[C@@H]12` (stereo partly drawn) yielded a Fluorescence of 54%.
In the case of `O=C1NC(Cc2ccccc2)C(=O)N2C(c3ccccc3)c3[nH]c4ccccc4c3C[C@@H]12` (stereo partly drawn), the Fluorescence is reported as 112%.
Molecule `CC(C)CC1c2[nH]c3ccccc3c2C[C@H]2C(=O)NC(CCCCNC(=O)OC(C)(C)C)C(=O)N12` (stereo partly drawn) has a Fluorescence of 305%.
`CCCCCC1c2[nH]c3ccccc3c2C[C@H]2C(=O)NC(CCCCNC(=O)OC(C)(C)C)C(=O)N12` (stereo partly drawn) gave a Fluorescence of 302%.
For `CC(C)(C)OC(=O)NCCCCC1NC(=O)[C@@H]2Cc3c([nH]c4ccccc34)C(c3ccccc3)N2C1=O` (stereo partly drawn), the Fluorescence was 85%.
In the case of `CC(C)C1c2[nH]c3ccccc3c2C[C@H]2C(=O)NC(N3CCCC3)C(=O)N12` (stereo partly drawn), the Fluorescence is reported as 45%.
`CCCCCC1c2[nH]c3ccccc3c2C[C@H]2C(=O)NC(CCC(=O)OC(C)(C)C)C(=O)N12` (stereo partly drawn) gave a Fluorescence of 283%.
`CC1NC(=O)[C@@H]2Cc3c([nH]c4ccccc34)C(C(C)C)N2C1=O` (stereo partly drawn) was tested, and the Fluorescence was 49%.
With `CCC1c2[nH]c3ccccc3c2C[C@H]2C(=O)NC(CCCCNC(=O)OC(C)(C)C)C(=O)N12` (stereo partly drawn) the Fluorescence was 74%.
`CCCCCC1c2[nH]c3ccccc3c2C[C@H]2C(=O)NC(COC(C)(C)C)C(=O)N12` (stereo partly drawn) gave a Fluorescence of 275%.
For `CCC1c2[nH]c3ccccc3c2C[C@H]2C(=O)NC(COC(C)(C)C)C(=O)N12` (stereo partly drawn), the Fluorescence was 71%.
`CC1NC(=O)[C@@H]2Cc3c([nH]c4ccccc34)C(C3CCCCC3)N2C1=O` (stereo partly drawn) was tested, and the Fluorescence was 74%.
Work on `CCCCCC1c2[nH]c3ccccc3c2C[C@H]2C(=O)NC(Cc3c[nH]c4ccccc34)C(=O)N12` (stereo partly drawn) yielded a Fluorescence of 242%.
In the case of `CC(C)CC1c2[nH]c3ccccc3c2C[C@H]2C(=O)NC(Cc3c[nH]c4ccccc34)C(=O)N12` (stereo partly drawn), the Fluorescence is reported as 279%.
For `CC1NC(=O)[C@@H]2Cc3c([nH]c4ccccc34)C(c3ccccc3)N2C1=O` (stereo partly drawn), the Fluorescence was 53%.
In the case of `CC(C)C1c2[nH]c3ccccc3c2C[C@H]2C(=O)NC(CCC(=O)OC(C)(C)C)C(=O)N12` (stereo partly drawn), the Fluorescence is reported as 149%.
Work on `CC(C)CC1c2[nH]c3ccccc3c2C[C@H]2C(=O)NC(CCC(=O)OC(C)(C)C)C(=O)N12` (stereo partly drawn) yielded a Fluorescence of 348%.
Work on `CC(C)(C)OC(=O)CCC1NC(=O)[C@@H]2Cc3c([nH]c4ccccc34)C(c3ccccc3)N2C1=O` (stereo partly drawn) yielded a Fluorescence of 100%.
`CC(C)C1c2[nH]c3ccccc3c2C[C@H]2C(=O)NC(COC(C)(C)C)C(=O)N12` (stereo partly drawn) was tested, and the Fluorescence was 93%.
For `CC(C)CC1c2[nH]c3ccccc3c2C[C@H]2C(=O)NC(Cc3ccccc3)C(=O)N12` (stereo partly drawn), the Fluorescence was 191%.
Molecule `CC(C)CC1c2[nH]c3ccccc3c2C[C@H]2C(=O)NC(N3CCCC3)C(=O)N12` (stereo partly drawn) has a Fluorescence of 56%.
Work on `CCC1c2[nH]c3ccccc3c2C[C@H]2C(=O)NC(CCC(=O)OC(C)(C)C)C(=O)N12` (stereo partly drawn) yielded a Fluorescence of 80%.
Molecule `CC(C)(C)OC(=O)NCCCCC1NC(=O)[C@@H]2Cc3c([nH]c4ccccc34)C(C3CCCCC3)N2C1=O` (stereo partly drawn) has a Fluorescence of 278%.
With `CC(C)C1c2[nH]c3ccccc3c2C[C@H]2C(=O)NC(Cc3ccccc3)C(=O)N12` (stereo partly drawn) the Fluorescence was 104%.
`O=C1NC(Cc2ccccc2)C(=O)N2C(C3CCCCC3)c3[nH]c4ccccc4c3C[C@@H]12` (stereo partly drawn) showed a Fluorescence of 91%.
`CCCCCC1c2[nH]c3ccccc3c2C[C@H]2C(=O)NC(N3CCCC3)C(=O)N12` (stereo partly drawn) gave a Fluorescence of 119%.
`CCC1c2[nH]c3ccccc3c2C[C@H]2C(=O)NC(N3CCCC3)C(=O)N12` (stereo partly drawn) was tested, and the Fluorescence was 42%.
`CC(C)CC1c2[nH]c3ccccc3c2C[C@H]2C(=O)NC(COC(C)(C)C)C(=O)N12` (stereo partly drawn) was tested, and the Fluorescence was 216%.
Molecule `O=C1NC(Cc2c[nH]c3ccccc23)C(=O)N2C(C3CCCCC3)c3[nH]c4ccccc4c3C[C@@H]12` (stereo partly drawn) has a Fluorescence of 158%.
`CC(C)(C)OCC1NC(=O)[C@@H]2Cc3c([nH]c4ccccc34)C(C3CCCCC3)N2C1=O` (stereo partly drawn) was tested, and the Fluorescence was 276%.
With `CC(C)C1c2[nH]c3ccccc3c2C[C@H]2C(=O)NC(Cc3c[nH]c4ccccc34)C(=O)N12` (stereo partly drawn) the Fluorescence was 96%.
`CCCCCC1c2[nH]c3ccccc3c2C[C@H]2C(=O)NC(C)C(=O)N12` (stereo partly drawn) showed a Fluorescence of 175%.
For `O=C1NC(N2CCCC2)C(=O)N2C(C3CCCCC3)c3[nH]c4ccccc4c3C[C@@H]12` (stereo partly drawn), the Fluorescence was 85%.
Molecule `CC(C)CC1c2[nH]c3ccccc3c2C[C@H]2C(=O)NC(C)C(=O)N12` (stereo partly drawn) has a Fluorescence of 80%.
`CCC1c2[nH]c3ccccc3c2C[C@H]2C(=O)NC(Cc3c[nH]c4ccccc34)C(=O)N12` (stereo partly drawn) showed a Fluorescence of 96%.
Work on `CCCCCC1c2[nH]c3ccccc3c2C[C@H]2C(=O)NC(Cc3ccccc3)C(=O)N12` (stereo partly drawn) yielded a Fluorescence of 199%.
`CCC1c2[nH]c3ccccc3c2C[C@H]2C(=O)NC(C)C(=O)N12` (stereo partly drawn) showed a Fluorescence of 43%.
With `CC(C)C1c2[nH]c3ccccc3c2C[C@H]2C(=O)NC(CCCCNC(=O)OC(C)(C)C)C(=O)N12` (stereo partly drawn) the Fluorescence was 133%.
For `CC(C)(C)OC(=O)CCC1NC(=O)[C@@H]2Cc3c([nH]c4ccccc34)C(C3CCCCC3)N2C1=O` (stereo partly drawn), the Fluorescence was 252%.

What follows are molecules tested on AIK-T8 (assay: Ability to inhibit […] activity at 2.5 uM and 200 ng/ml PSC833 in a mitoxantrone accumulation assay on T8 human cell line). Conditions: aik-t8, 2.5 µM.
Format: ADME, cell-based
`CC(C)(C)OCC1NC(=O)[C@@H]2Cc3c([nH]c4ccccc34)C(c3ccccc3)N2C1=O` (stereo partly drawn) gave a Fluorescence of 339%.
In the case of `CCC1c2[nH]c3ccccc3c2C[C@H]2C(=O)NC(Cc3ccccc3)C(=O)N12` (stereo partly drawn), the Fluorescence is reported as 228%.
`O=C1NC(Cc2c[nH]c3ccccc23)C(=O)N2C(c3ccccc3)c3[nH]c4ccccc4c3C[C@@H]12` (stereo partly drawn) showed a Fluorescence of 376%.
With `O=C1NC(N2CCCC2)C(=O)N2C(c3ccccc3)c3[nH]c4ccccc4c3C[C@@H]12` (stereo partly drawn) the Fluorescence was 176%.
`O=C1NC(Cc2ccccc2)C(=O)N2C(c3ccccc3)c3[nH]c4ccccc4c3C[C@@H]12` (stereo partly drawn) gave a Fluorescence of 376%.
`CC(C)CC1c2[nH]c3ccccc3c2C[C@H]2C(=O)NC(CCCCNC(=O)OC(C)(C)C)C(=O)N12` (stereo partly drawn) was tested, and the Fluorescence was 649%.
`CCCCCC1c2[nH]c3ccccc3c2C[C@H]2C(=O)NC(CCCCNC(=O)OC(C)(C)C)C(=O)N12` (stereo partly drawn) gave a Fluorescence of 599%.
Work on `CC(C)(C)OC(=O)NCCCCC1NC(=O)[C@@H]2Cc3c([nH]c4ccccc34)C(c3ccccc3)N2C1=O` (stereo partly drawn) yielded a Fluorescence of 305%.
With `CC(C)C1c2[nH]c3ccccc3c2C[C@H]2C(=O)NC(N3CCCC3)C(=O)N12` (stereo partly drawn) the Fluorescence was 136%.
`CCCCCC1c2[nH]c3ccccc3c2C[C@H]2C(=O)NC(CCC(=O)OC(C)(C)C)C(=O)N12` (stereo partly drawn) gave a Fluorescence of 592%.
In the case of `CC1NC(=O)[C@@H]2Cc3c([nH]c4ccccc34)C(C(C)C)N2C1=O` (stereo partly drawn), the Fluorescence is reported as 156%.
For `CCC1c2[nH]c3ccccc3c2C[C@H]2C(=O)NC(CCCCNC(=O)OC(C)(C)C)C(=O)N12` (stereo partly drawn), the Fluorescence was 313%.
`CCCCCC1c2[nH]c3ccccc3c2C[C@H]2C(=O)NC(COC(C)(C)C)C(=O)N12` (stereo partly drawn) showed a Fluorescence of 607%.
`CCC1c2[nH]c3ccccc3c2C[C@H]2C(=O)NC(COC(C)(C)C)C(=O)N12` (stereo partly drawn) was tested, and the Fluorescence was 225%.
With `CC1NC(=O)[C@@H]2Cc3c([nH]c4ccccc34)C(C3CCCCC3)N2C1=O` (stereo partly drawn) the Fluorescence was 268%.
`CCCCCC1c2[nH]c3ccccc3c2C[C@H]2C(=O)NC(Cc3c[nH]c4ccccc34)C(=O)N12` (stereo partly drawn) was tested, and the Fluorescence was 601%.
`CC(C)CC1c2[nH]c3ccccc3c2C[C@H]2C(=O)NC(Cc3c[nH]c4ccccc34)C(=O)N12` (stereo partly drawn) was tested, and the Fluorescence was 535%.
`CC1NC(=O)[C@@H]2Cc3c([nH]c4ccccc34)C(c3ccccc3)N2C1=O` (stereo partly drawn) was tested, and the Fluorescence was 181%.
`CC(C)C1c2[nH]c3ccccc3c2C[C@H]2C(=O)NC(CCC(=O)OC(C)(C)C)C(=O)N12` (stereo partly drawn) gave a Fluorescence of 381%.
Work on `CC(C)CC1c2[nH]c3ccccc3c2C[C@H]2C(=O)NC(CCC(=O)OC(C)(C)C)C(=O)N12` (stereo partly drawn) yielded a Fluorescence of 711%.
Work on `CC(C)(C)OC(=O)CCC1NC(=O)[C@@H]2Cc3c([nH]c4ccccc34)C(c3ccccc3)N2C1=O` (stereo partly drawn) yielded a Fluorescence of 313%.
Work on `CC(C)C1c2[nH]c3ccccc3c2C[C@H]2C(=O)NC(COC(C)(C)C)C(=O)N12` (stereo partly drawn) yielded a Fluorescence of 334%.
With `CC(C)CC1c2[nH]c3ccccc3c2C[C@H]2C(=O)NC(Cc3ccccc3)C(=O)N12` (stereo partly drawn) the Fluorescence was 431%.
In the case of `CC(C)CC1c2[nH]c3ccccc3c2C[C@H]2C(=O)NC(N3CCCC3)C(=O)N12` (stereo partly drawn), the Fluorescence is reported as 187%.
Work on `CCC1c2[nH]c3ccccc3c2C[C@H]2C(=O)NC(CCC(=O)OC(C)(C)C)C(=O)N12` (stereo partly drawn) yielded a Fluorescence of 313%.
`CC(C)(C)OC(=O)NCCCCC1NC(=O)[C@@H]2Cc3c([nH]c4ccccc34)C(C3CCCCC3)N2C1=O` (stereo partly drawn) was tested, and the Fluorescence was 629%.
For `CC(C)C1c2[nH]c3ccccc3c2C[C@H]2C(=O)NC(Cc3ccccc3)C(=O)N12` (stereo partly drawn), the Fluorescence was 359%.
For `CCCCCC1c2[nH]c3ccccc3c2C[C@H]2C(=O)NC(N3CCCC3)C(=O)N12` (stereo partly drawn), the Fluorescence was 370%.
`CCC1c2[nH]c3ccccc3c2C[C@H]2C(=O)NC(N3CCCC3)C(=O)N12` (stereo partly drawn) showed a Fluorescence of 119%.
Molecule `CC(C)CC1c2[nH]c3ccccc3c2C[C@H]2C(=O)NC(COC(C)(C)C)C(=O)N12` (stereo partly drawn) has a Fluorescence of 522%.
Work on `O=C1NC(Cc2c[nH]c3ccccc23)C(=O)N2C(C3CCCCC3)c3[nH]c4ccccc4c3C[C@@H]12` (stereo partly drawn) yielded a Fluorescence of 410%.
With `CC(C)(C)OCC1NC(=O)[C@@H]2Cc3c([nH]c4ccccc34)C(C3CCCCC3)N2C1=O` (stereo partly drawn) the Fluorescence was 672%.
`CC(C)C1c2[nH]c3ccccc3c2C[C@H]2C(=O)NC(Cc3c[nH]c4ccccc34)C(=O)N12` (stereo partly drawn) showed a Fluorescence of 310%.
With `CCCCCC1c2[nH]c3ccccc3c2C[C@H]2C(=O)NC(C)C(=O)N12` (stereo partly drawn) the Fluorescence was 436%.
With `O=C1NC(N2CCCC2)C(=O)N2C(C3CCCCC3)c3[nH]c4ccccc4c3C[C@@H]12` (stereo partly drawn) the Fluorescence was 313%.
`CC(C)CC1c2[nH]c3ccccc3c2C[C@H]2C(=O)NC(C)C(=O)N12` (stereo partly drawn) gave a Fluorescence of 333%.
For `CCC1c2[nH]c3ccccc3c2C[C@H]2C(=O)NC(Cc3c[nH]c4ccccc34)C(=O)N12` (stereo partly drawn), the Fluorescence was 354%.
In the case of `CCCCCC1c2[nH]c3ccccc3c2C[C@H]2C(=O)NC(Cc3ccccc3)C(=O)N12` (stereo partly drawn), the Fluorescence is reported as 514%.
Work on `CCC1c2[nH]c3ccccc3c2C[C@H]2C(=O)NC(C)C(=O)N12` (stereo partly drawn) yielded a Fluorescence of 114%.
`CC(C)C1c2[nH]c3ccccc3c2C[C@H]2C(=O)NC(CCCCNC(=O)OC(C)(C)C)C(=O)N12` (stereo partly drawn) showed a Fluorescence of 452%.
`CC(C)(C)OC(=O)CCC1NC(=O)[C@@H]2Cc3c([nH]c4ccccc34)C(C3CCCCC3)N2C1=O` (stereo partly drawn) gave a Fluorescence of 638%.
